The values that follow come from article PMC6086658, “Unified mechanisms for self-RNA recognition by RIG-I Singleton-Merten syndrome variants” (eLife, 2018).

In one assay the target is T1, RIG-I C268F (Homo sapiens, UniProt O95786, C268F).
T1 construct: made in house; host or cells: High Five (Trichoplusia ni) insect cells, baculovirus, pFBDM vector
T1 sequence (O95786 1-925 C268F): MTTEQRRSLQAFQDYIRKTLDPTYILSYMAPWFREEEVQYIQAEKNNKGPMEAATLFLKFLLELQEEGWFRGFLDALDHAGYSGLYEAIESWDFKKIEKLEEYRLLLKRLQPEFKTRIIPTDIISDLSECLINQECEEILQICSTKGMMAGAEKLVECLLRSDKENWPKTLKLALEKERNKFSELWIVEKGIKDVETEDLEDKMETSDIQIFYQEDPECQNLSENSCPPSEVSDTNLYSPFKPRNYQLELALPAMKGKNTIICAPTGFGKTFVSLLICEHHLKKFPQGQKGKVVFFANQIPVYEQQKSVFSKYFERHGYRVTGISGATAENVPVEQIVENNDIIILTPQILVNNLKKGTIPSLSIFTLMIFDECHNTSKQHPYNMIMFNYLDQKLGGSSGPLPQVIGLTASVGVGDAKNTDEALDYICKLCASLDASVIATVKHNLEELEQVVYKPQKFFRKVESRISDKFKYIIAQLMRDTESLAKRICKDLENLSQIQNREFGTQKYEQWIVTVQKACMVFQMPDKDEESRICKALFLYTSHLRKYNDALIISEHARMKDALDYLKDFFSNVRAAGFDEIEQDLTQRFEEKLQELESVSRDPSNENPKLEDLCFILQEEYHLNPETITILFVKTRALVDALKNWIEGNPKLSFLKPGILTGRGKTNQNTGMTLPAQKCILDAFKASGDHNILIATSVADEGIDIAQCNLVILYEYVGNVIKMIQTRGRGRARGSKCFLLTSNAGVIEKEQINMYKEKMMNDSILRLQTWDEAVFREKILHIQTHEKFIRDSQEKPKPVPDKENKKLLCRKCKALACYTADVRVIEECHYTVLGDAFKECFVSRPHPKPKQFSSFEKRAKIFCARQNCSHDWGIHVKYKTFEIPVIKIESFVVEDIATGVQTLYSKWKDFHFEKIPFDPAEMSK
Kind of assay: MANT-nucleotide binding, tryptophan fluorescence FRET. The procedure:
(§1) Binding of MANT-ATP and MANT-ATPγS to different full-length RIG-I mutants (1–925, N-terminal His-tag) was determined via Förster resonance energy transfer from RIG-I to MANT-ATP (Jena Bioscience, Jena, Germany). All samples were prepared in 96-well black chimney microplates. 2.2 µM protein and equimolar concentrations of a 14mer dsRNA (5'-CGACGCUAGCGUCG-3', see 'Protein crystalization') were pre-incubated with different MANT-ATP concentrations (0.2 µM – 200 µM) for 15 min at room temperature in assay buffer (25 mM HEPES, 50 mM NaCl, 5 mM MgCl2, 1 mM DTT, pH 7). Fluorescence of MANT-ATP was measured in a TECAN M1000 microplate reader at λex/em = 290/448 nm, gain = 170 using an average of five reads per well. Assays were performed four times in independent experiments using the same protein purification batch. For determination of affinities fluorescence values were fitted to Equation (1) using R, where y is the fluorescence, [P] is the protein concentration, Bmax is the maximal fluorescence and KD is the dissociation constant. Fitting was performed globally on all available datasets. Representative values in figures are mean values ± SD.

Another assay concerns the target T2, RIG-I K270I (Homo sapiens, UniProt O95786, K270I).
T2 construct: different full-length RIG-I mutants (1–925, N-terminal His-tag); made in house; host or cells: High Five (Trichoplusia ni) insect cells, baculovirus, pFBDM vector
T2 sequence (O95786 1-925 K270I): T1 sequence (O95786 1-925 C268F) with F268C, K270I
The description is as above. The procedure:
as §1

[1] abbreviates: presence of equimolar 14mer dsRNA, n.f. = no fit possible as no saturation was reached.

Positions count from the first letter of the chain named.

By Kd is commonly meant a measure of binding affinity in units of concentration. On to MANT-ATP, for which the Kd turned out to be 166 ± 34 µM on RIG-I C268F (absence of RNA, n = 4, read-out: Affinity (KD) to RIG-I C268F) and 298 ± 81 µM on RIG-I K270I (absence of RNA, n = 4, read-out: Affinity (KD) to RIG-I K270I). For the same substance, at RIG-I C268F (setting [1]), the “Affinity (KD) to RIG-I C268F + RNA” value is reported as “n.f”. Besides, the “Affinity (KD) to RIG-I K270I + RNA” value at RIG-I K270I (setting [1]) is given as “n.f”.
